Laboratory results from paper PMC10046901, “Molecular Analysis of the Superior Efficacy of a Dual Epidermal Growth Factor Receptor (EGFR)-DNA-Targeting Combi-Molecule in Comparison with Its Putative Prodrugs 6-Mono-Alkylamino- and 6,6-Dialkylaminoquinazoline in a Human Osteosarcoma Xenograft Model” (Cells, 2023).

Tests used:
[1] = tested on: panel of osteosarcoma cells (U2-OS, Saos-2, MG-63, MNNG/HOS, KHOS/NP); assay: Growth inhibition assay across panel of osteosarcoma cell lines; format: cell-based; conditions: for IC50: range over five osteosarcoma cell lines
[2] = molecular target: T1, EGFR phosphorylation of tyrosine (Tyr) 1068 (Homo sapiens, UniProt P00533); assay: P-EGFR in tumor tissue (immunohistochemistry, Western blot); format: in vivo; conditions: tumors 3 h after last dose, 80 mg/kg, N = 4
T1 construct: Western blotting in tumor samples obtained from animals treated with ZR2002, JS61, JS84 or the vehicle; from tissue; host or cells: Saos-2 xenograft tumours grown subcutaneously in NSG mice
Procedure: (§1) In order to study the drug pharmacokinetics, 1 last dose (the 11th dose) was administered 3 h prior to sacrifice and after a break of 5 days from the previous drug administration.
(§2) At the end of the study, the mice were sacrificed, and the plasma and tumors were collected. The plasma was stored at −80 °C, and the tumor tissues were transversely cut into 2 parts: 1 was immediately frozen in liquid nitrogen and stored at −80 °C for Western blots and LC-MS analysis; the other was fixed in 4% paraformaldehyde and used for histology.
The tumors were fixed for 36 h in 4% paraformaldehyde, transferred to 70% EtOH and paraffin-embedded. Sections 4 µm thick were deparaffinized, rehydrated and incubated for 20 min at 37 °C with anti-P-EGFR (1–100, ab40815, Abcam, Cambridge, UK) or anti-P-H2AX (1–100, sc-517348, Santa Cruz Biotechnology, Dallas, TX, USA), followed by secondary Ab incubation with OmniMap anti-Rb HRP (760–4311, Roche, Basel, Switzerland) at room temperature for 16 min, followed by the detection kit ChromoMap Kit (760–4304, Roche, Basel, Switzerland), and the slides were then counterstained with hematoxylin, dehydrated, cleared and cover-slipped. The slides were digitally scanned using an Aperio scanner scope XT.
The tumor tissue samples were smashed with liquid nitrogen into a mortar, and the tumor powders were transferred to cold RIPA 1x buffer with an anti-protease and anti-phosphatase inhibitor cocktail (Roche, Basel, Switzerland) in ice for 1 h and sonicated. After centrifugation, the proteins were quantified and mixed in Laemmli buffer (Sigma-Aldrich, St. Louis, MO, USA), maintaining the same concentration.
Cell lysates or tissue lysates were loaded onto 4–20% SDS-PAGE gels (mini-protean TGx stain-free, Bio-Rad, Hercules, CA, USA) and transferred to PVDF membranes that were pre-wetted with methanol. […] The quantification of the immunoblots was performed on digitalized images using ImageLab Software 6.1 (Bio-Rad, Hercules, CA, USA). […]

[3] = Plasma and tumor metabolism by LC-MS and LC-MS/MS; format: in vivo, NSG male mice; conditions: 3 h after administration; for in vivo metabolism of administered drug (LC-MS): tumor and plasma; for in vivo metabolism of administered drug (LC-MS) / concentration of released ZR2002 in treated tumors relative to ZR2002-treated tumors: 80 mg/kg oral; for concentration of released ZR2002 in treated tumors relative to ZR2002-treated tumors: tumor, N = 4
Procedure: as §1, §2
Individual stock solutions of ZR2002 and Nitro-RB10 (IS) were prepared in DMSO at 10 mg/mL and, after, in MeOH at a concentration of 100 μg/mL. Intermediate dilutions were prepared using ACN:water (35:65, v:v). All stock and working solutions were stored at −20 °C and brought to room temperature before use.
The dynamic range for the calibration curve ranged from 0.4 to 150 ng/mL, including 0.4, 1, 5, 10, 50, 80, 100 and 150 ng/mL in plasma and tumor matrix. These standards were prepared by spiking an appropriate volume of a standard spiking solution into the blank extracted plasma or tumor and vortexing. A total of 3 levels of QC samples were run during the analysis, including a low QC of 1 ng/mL, a mid QC of 10 ng/mL and a high QC of 100 ng/mL. These QC samples were prepared by spiking an appropriate volume of the spiking solution into the matrix blank. An appropriate volume of the IS spiking solution was then spiked into the calibration standards and QC samples to generate a final IS concentration of 15 ng/mL in the matrix. All samples were vortexed gently, completing the sample preparation process.
An amount of 50 μL of each plasma sample was deproteinized with 200 µL of cold ACN. The samples were mixed for 10 s, shaken automatically for 10 min and centrifuged for 10 min at 15,000 rpm (21,130 rcf) at 4 °C. After centrifugation, the supernatants were loaded into Captiva-Enhanced Matrix Removal (EMR)-Lipid cartridges (1.0 mL; 40 mg; Agilent, Santa Clara, CA, USA) and settled for 5 min. The supernatants were eluted by applying a positive pressure (2 psi for 2 min) using a positive pressure manifold (PPM 96 processor, Agilent Techn.). The cartridges were washed with ACN:water (8:2, v:v) 100 μL, at 2–4 psi for 2 min, followed by a 1-min period of high pressure (6–9 psi) to drain the cartridges. The elutes were transferred to new tubes and dried under vacuum using a Centrivap sample concentrator (Centrivap Complete^TM, Labconco Corporation, Kansas City, MO, USA) at room temperature. The dried samples were stored at −20 °C before LC-MS analysis. On the day of analysis, the samples were reconstituted in 100 µL of MeOH, vortexed for 10 s, sonicated for 5 min (sonic bath, Symphony, VWR International, Radnor, PA, USA) and centrifuged for 5 min at 15,000 rpm. The supernatants were diluted 60 times in 35% ACN, and an appropriate volume of the IS spiking solution was then spiked into the samples to generate a final IS concentration of 15 ng/mL. At the end of the process, all samples were diluted 120 times. These final solutions were transferred to autosampler vials (350 µL, Thermo Fisher Scientific, Waltham, MA, USA), and 10 µL of each was injected into the LC-MS system.
A weighted piece of tumor was crushed in a mortar with liquid nitrogen. To the tumor powder, 150 μL of water was added before deproteinizing the mixture with 600 µL of cold ACN. The samples were mixed for 10s, sonicated with ice in a sonication bath for 30 min to 1 h (Sonicate bath, VWR, International, Radnor, PA, USA) and centrifuged for 10 min at 15,000 rpm (21,130 rcf) at 4 °C (Centrifuge 5424 R, Eppendorf). After centrifugation, the supernatants were loaded into Captiva-Enhanced Matrix Removal (EMR)-Lipid cartridges (1.0 mL; 40 mg; Agilent) and settled for 5 min. The supernatants were eluted by applying a positive pressure (2 psi for 2 min) using a positive pressure manifold (PPM 96 processor, Agilent Techn.). […]

T1 sequence (P00533 25-1210): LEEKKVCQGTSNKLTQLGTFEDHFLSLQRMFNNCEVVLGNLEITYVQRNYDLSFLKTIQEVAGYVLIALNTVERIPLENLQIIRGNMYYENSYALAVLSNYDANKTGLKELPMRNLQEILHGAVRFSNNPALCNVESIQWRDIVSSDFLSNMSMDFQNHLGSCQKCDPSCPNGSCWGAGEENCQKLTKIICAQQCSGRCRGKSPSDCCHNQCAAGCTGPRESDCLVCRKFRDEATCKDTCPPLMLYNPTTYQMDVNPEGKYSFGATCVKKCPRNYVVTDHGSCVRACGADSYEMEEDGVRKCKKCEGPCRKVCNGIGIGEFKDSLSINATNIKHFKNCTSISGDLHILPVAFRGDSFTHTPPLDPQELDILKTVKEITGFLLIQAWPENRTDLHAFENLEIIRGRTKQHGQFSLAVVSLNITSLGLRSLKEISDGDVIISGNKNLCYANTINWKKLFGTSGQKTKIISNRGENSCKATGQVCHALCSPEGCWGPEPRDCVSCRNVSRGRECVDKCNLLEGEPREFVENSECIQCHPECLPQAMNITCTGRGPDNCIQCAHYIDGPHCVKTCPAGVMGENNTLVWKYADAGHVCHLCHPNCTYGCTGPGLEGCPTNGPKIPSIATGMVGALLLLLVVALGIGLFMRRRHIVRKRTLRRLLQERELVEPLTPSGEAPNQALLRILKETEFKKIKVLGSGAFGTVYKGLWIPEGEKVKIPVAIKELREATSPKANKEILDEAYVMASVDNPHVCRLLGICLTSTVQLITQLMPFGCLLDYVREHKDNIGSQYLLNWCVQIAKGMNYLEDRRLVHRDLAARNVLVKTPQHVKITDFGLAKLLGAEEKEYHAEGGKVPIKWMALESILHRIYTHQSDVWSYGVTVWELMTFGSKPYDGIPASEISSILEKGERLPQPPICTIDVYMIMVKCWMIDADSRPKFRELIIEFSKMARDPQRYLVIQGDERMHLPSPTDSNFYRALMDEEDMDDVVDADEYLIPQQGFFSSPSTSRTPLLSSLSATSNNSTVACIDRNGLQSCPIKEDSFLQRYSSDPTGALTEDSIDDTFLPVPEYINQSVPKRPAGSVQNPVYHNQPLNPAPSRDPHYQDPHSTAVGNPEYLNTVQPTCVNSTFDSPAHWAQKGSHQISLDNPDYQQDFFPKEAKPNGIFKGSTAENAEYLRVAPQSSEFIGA

Structure (SMILES): ClCCNc1ccc2ncnc(Nc3cccc(Br)c3)c2c1 [ZR2002]
- IC50 [1]: 80 to 450 nM
- fold more potent than JS61 ([1]; ratio of IC50 values across the panel): 17–36 fold
- EGFR phosphorylation of Tyr 1068 in tumors vs vehicle [2]: reduced
- in vivo metabolism of administered drug (LC-MS) [3]: partially metabolized into its deschloroethyl metabolite “RB10” (peak 1) and RB10-N-acetyl (peak 2)

Structure (SMILES): ClCCN(CCCl)c1ccc2ncnc(Nc3cccc(Br)c3)c2c1 [JS61]
- IC50 [1]: 1390 to 12500 nM
- EGFR phosphorylation of Tyr 1068 in tumors vs vehicle [2]: detectable EGFR phosphorylation
- in vivo metabolism of administered drug (LC-MS) [3]: remained largely intact
- concentration of released ZR2002 in treated tumors relative to ZR2002-treated tumors [3]: five times lower

Structure (SMILES): CN(CCCl)c1ccc2ncnc(Nc3cccc(Br)c3)c2c1 [JS84]
- IC50 [1]: 180 to 5040 nM
- EGFR phosphorylation of Tyr 1068 in tumors vs vehicle [2]: detectable EGFR phosphorylation
- in vivo metabolism of administered drug (LC-MS) [3]: partially intact and largely converted into RB10-Methyl (peak 7), RB10 (1) and RB10-N-Acetyl (2)
- concentration of released ZR2002 in treated tumors relative to ZR2002-treated tumors [3]: five times lower
- concentrations of ZR2002 metabolite in treated tumors and plasma vs ZR2002-treated ([3]; tumors and plasma): significantly lower
